The target of this test is Bax (Homo sapiens, UniProt Q07812). Put plainly: competition fluorescence polarization assay with fluorescent Bak BH3 peptide. The format is binding. (Polarisation of emitted light reports the rotation of a fluorescent probe.)

Experimental findings from PMC5503158 (Cancer research, 2017) are described below.

The term Ki denotes a measure of affinity in units of concentration, obtained from inhibition or displacement. High values mean a looser hold on the target, low ones a stronger hold on the target.

Chain of Bax (Q07812 whole entry): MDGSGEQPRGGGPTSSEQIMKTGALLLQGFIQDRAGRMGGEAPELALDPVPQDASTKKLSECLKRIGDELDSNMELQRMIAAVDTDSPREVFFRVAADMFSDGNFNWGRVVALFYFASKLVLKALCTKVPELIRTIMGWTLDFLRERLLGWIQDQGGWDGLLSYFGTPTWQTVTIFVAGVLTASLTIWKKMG

For `NCCOc1ccccc1C=C1c2ccccc2-c2ccc([N+](=O)[O-])cc21` [CYD-2-11], the Ki was found to be 34.1 ± 8.54 nM.
